Read-outs that look alike come from different tables or passages of the source.
Tests used:
[1] = test system: NF-κB pathway (SEAP) in THP1-Dual cells; test: THP-1 Dual cell SEAP assay (L18-MDP stimulated); assay type: cell-based; conditions: Homo sapiens, THP1-Dual, read-out: NFkB THP1 IC50
[2] = target: GST-RIPK2 fusion protein (human RIPK2 amino acids 1-310) (Homo sapiens (Human), UniProt O43353); test: RIPK2 binding competition assay (TR-FRET, Tracer 199)
[3] = read-out: RIPK2 IC50, RIPK2 binding competition assay

Sequence of GST-RIPK2 fusion protein (human RIPK2 amino acids 1-310) (O43353 1-310): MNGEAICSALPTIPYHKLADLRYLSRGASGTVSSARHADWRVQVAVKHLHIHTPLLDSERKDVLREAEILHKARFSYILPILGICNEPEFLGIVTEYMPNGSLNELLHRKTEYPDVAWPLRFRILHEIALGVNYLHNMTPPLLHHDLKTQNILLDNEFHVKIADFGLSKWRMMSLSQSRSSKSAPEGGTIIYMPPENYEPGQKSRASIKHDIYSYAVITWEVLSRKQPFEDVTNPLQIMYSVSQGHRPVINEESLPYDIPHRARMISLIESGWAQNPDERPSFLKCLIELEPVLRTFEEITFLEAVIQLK

Compound: COc1cc2ncc(-c3cc(F)nc(N(C)CCCO)c3)n2cc1S(=O)(=O)C(C)(C)C [Example 209, 3-((4-(6-(tert-butylsulfonyl)-7-methoxyimidazo[1,2-a]pyridin-3-yl)-6-fluoropyridin-2-yl)(methyl)amino) propan-1-ol]
- IC50 [1]: 50 to 250 nM
- IC50 [2]: 1 to 2.5 nM

Compound: COc1cc2ncc(-c3cc(F)nc(NCCN4CCCC4=O)c3)n2cc1S(=O)(=O)C(C)(C)C [Example 210, 1-(2-((4-(6-(tert-butylsulfonyl)-7-methoxyimidazo[1,2-a]pyridin-3-yl)-6-fluoropyridin-2-yl)amino)ethyl) pyrrolidin-2-one]
- IC50 [1]: 50 to 250 nM
- IC50 [2]: 1 to 2.5 nM

Compound: COc1cc2ncc(-c3cc(F)nc(N4CCOCC4)c3)n2cc1S(=O)(=O)C(C)(C)C [Example 211, 4-(4-(6-(tert-butylsulfonyl)-7-methoxyimidazo[1,2-a]pyridin-3-yl)-6-fluoropyridin-2-yl)morpholine]
- IC50 [1]: 250 to 1000 nM
- IC50 [2]: 2.5 to 20 nM

Compound: COc1cc2ncc(-c3cc(F)nc(NC4CCOCC4)c3)n2cc1S(=O)(=O)C(C)(C)C [Example 212, 4-(6-(tert-butylsulfonyl)-7-methoxyimidazo[1,2-a]pyridin-3-yl)-6-fluoro-N-(tetrahydro-2H-pyran-4-yl)pyridin-2-amine]
- IC50 [1]: > 1000 nM
- IC50 [2]: 2.5 to 20 nM

Compound: COc1cc2ncc(-c3cc(F)nc(NCCC4(O)COC4)c3)n2cc1S(=O)(=O)C(C)(C)C [Example 213, 3-(2-((4-(6-(tert-butylsulfonyl)-7-methoxyimidazo[1,2-a]pyridin-3-yl)-6-fluoropyridin-2-yl)amino)ethyl)oxetan-3-ol]
- IC50 [1]: 250 to 1000 nM
- IC50 [2]: 2.5 to 20 nM

Compound: COc1cc2ncc(-c3cc(F)c(C#N)c(NCCCO)c3)n2cc1S(=O)(=O)C(C)(C)C [Example 214, 4-(6-(tert-butylsulfonyl)-7-methoxyimidazo[1,2-a]pyridin-3-yl)-2-fluoro-6-((3-hydroxypropyl)amino) benzonitrile]
- IC50 [1]: 50 to 250 nM
- IC50 [2]: 2.5 to 20 nM

Compound: COc1cc2ncc(-c3cc(N)nc(F)c3)n2cc1S(=O)(=O)C(C)(C)C [Example 215, 4-(6-(tert-butylsulfonyl)-7-methoxyimidazo[1,2-a]pyridin-3-yl)-6-fluoropyridin-2-amine]
- IC50 [1]: < 50 nM
- IC50 [2, 3]: < 1 nM

Compound: COc1ccc(CNc2cc(-c3cnc4cc(OC)c(S(=O)(=O)C(C)(C)C)cn34)cc(F)n2)cc1 [Example 216]
- IC50 [1]: 50 to 250 nM
- IC50 [2, 3]: < 1 nM

Compound: COc1cc2ncc(-c3cc(F)nc(N[C@H](C)CO)c3)n2cc1S(=O)(=O)C(C)(C)C [Example 221, (2R)-2-({6-fluoro-4-[7-methoxy-6-(2-methylpropane-2-sulfonyl)imidazo[1,2-a]pyridin-3-yl]pyridin-2-yl}amino)propan-1-ol]
- IC50 [1]: < 50 nM
- IC50 [2]: 1 to 2.5 nM

Compound: COc1cc2ncc(-c3cc(F)nc(N[C@@H](C)CO)c3)n2cc1S(=O)(=O)C(C)(C)C [Example 222, (2S)-2-({6-fluoro-4-[7-methoxy-6-(2-methylpropane-2-sulfonyl)imidazo[1,2-a]pyridin-3-yl]pyridin-2-yl}amino)propan-1-ol]
- IC50 [1]: < 50 nM
- IC50 [2]: 1 to 2.5 nM

Compound: COc1cc2ncc(-c3cc(F)nc(N4CCN(C)CC4)c3)n2cc1S(=O)(=O)C(C)(C)C [Example 223, 1-{6-fluoro-4-[7-methoxy-6-(2-methylpropane-2-sulfonyl)imidazo[1,2-a]pyridin-3-yl]pyridin-2-yl}-4-methylpiperazine]
- IC50 [1]: 50 to 250 nM
- IC50 [2]: 2.5 to 20 nM

Compound: COc1cc2ncc(-c3cc(F)nc(NCC(C)(C)O)c3)n2cc1S(=O)(=O)C(C)(C)C [Example 224, 1-({6-fluoro-4-[7-methoxy-6-(2-methylpropane-2-sulfonyl)imidazo[1,2-a]pyridin-3-yl]pyridin-2-yl}amino)-2-methylpropan-2-ol]
- IC50 [1]: < 50 nM
- IC50 [2]: 1 to 2.5 nM

Compound: COc1cc2ncc(-c3cc(F)nc(NC[C@@H](C)O)c3)n2cc1S(=O)(=O)C(C)(C)C [Example 226, (2R)-1-({6-fluoro-4-[7-methoxy-6-(2-methylpropane-2-sulfonyl)imidazo[1,2-a]pyridin-3-yl]pyridin-2-yl}amino)propan-2-ol]
- IC50 [1]: < 50 nM
- IC50 [2]: 1 to 2.5 nM

Compound: COc1cc2ncc(-c3cc(F)nc(NC[C@H](C)O)c3)n2cc1S(=O)(=O)C(C)(C)C [Example 227, (2S)-1-({6-fluoro-4-[7-methoxy-6-(2-methylpropane-2-sulfonyl)imidazo[1,2-a]pyridin-3-yl]pyridin-2-yl}amino)propan-2-ol]
- IC50 [1]: < 50 nM
- IC50 [2]: 1 to 2.5 nM

Compound: COc1cc2ncc(-c3cc(F)nc(NCC(F)(F)CO)c3)n2cc1S(=O)(=O)C(C)(C)C [Example 228, 2,2-difluoro-3-({6-fluoro-4-[7-methoxy-6-(2-methylpropane-2-sulfonyl)imidazo[1,2-a]pyridin-3-yl]pyridin-2-yl}amino)propan-1-ol]
- IC50 [1]: < 50 nM
- IC50 [2, 3]: < 1 nM

Compound: COc1cc2ncc(-c3cc(F)nc(NC[C@@H](F)CO)c3)n2cc1S(=O)(=O)C(C)(C)C [Example 229, (2R)-2-fluoro-3-({6-fluoro-4-[7-methoxy-6-(2-methylpropane-2-sulfonyl)imidazo[1,2-a]pyridin-3-yl]pyridin-2-yl}amino)propan-1-ol]
- IC50 [1]: < 50 nM
- IC50 [2, 3]: < 1 nM

Compound: COc1cc2ncc(-c3cc(F)nc(N[C@H](C)CCO)c3)n2cc1S(=O)(=O)C(C)(C)C [Example 230, (3R)-3-({6-fluoro-4-[7-methoxy-6-(2-methylpropane-2-sulfonyl)imidazo[1,2-a]pyridin-3-yl]pyridin-2-yl}amino)butan-1-ol]
- IC50 [1]: 250 to 1000 nM
- IC50 [2]: 2.5 to 20 nM

Compound: COc1cc2ncc(-c3cc(F)nc(NC[C@H](F)CO)c3)n2cc1S(=O)(=O)C(C)(C)C [Example 231, (2S)-2-fluoro-3-({6-fluoro-4-[7-methoxy-6-(2-methylpropane-2-sulfonyl)imidazo[1,2-a]pyridin-3-yl]pyridin-2-yl}amino)propan-1-ol]
- IC50 [1]: < 50 nM
- IC50 [2, 3]: < 1 nM

Compound: COc1cc2ncc(-c3cc(NCCCO)nc(C(F)(F)F)c3)n2cc1S(=O)(=O)C(C)(C)C [Example 232, 3-({4-[7-methoxy-6-(2-methylpropane-2-sulfonyl)imidazo[1,2-a]pyridin-3-yl]-6-(trifluoromethyl)pyridin-2-yl}amino)propan-1-ol]
- IC50 [1]: 250 to 1000 nM
- IC50 [2]: 2.5 to 20 nM

Compound: COc1cc2ncc(-c3cc(F)nc(NCCOC(F)F)c3)n2cc1S(=O)(=O)C(C)(C)C [Example 233, 4-(6-(tert-butylsulfonyl)-7-methoxyimidazo[1,2-a]pyridin-3-yl)-N-(2-(difluoromethoxy)ethyl)-6-fluoropyridin-2-amine]
- IC50 [1]: < 50 nM
- IC50 [2, 3]: < 1 nM

Compound: COc1ccn2c(-c3cc(F)nc(NCCCO)c3)cnc2c1 [Example 234, 3-[(6-fluoro-4-{7-methoxyimidazo[1,2-a]pyridin-3-yl}pyridin-2-yl)amino]propan-1-ol]
- IC50 [1]: 50 to 250 nM
- IC50 [2]: 2.5 to 20 nM

Compound: COc1cc2ncc(-c3cc(F)nc(NCCSC)c3)n2cc1S(=O)(=O)C(C)(C)C [Example 235, 4-(6-(tert-butylsulfonyl)-7-methoxyimidazo[1,2-a]pyridin-3-yl)-6-fluoro-N-(2-(methylthio)ethyl) pyridin-2-amine]
- IC50 [1]: < 50 nM
- IC50 [2]: 1 to 2.5 nM

Compound: COc1cc2ncc(-c3cc(F)nc(N[C@@H](C)CCO)c3)n2cc1S(=O)(=O)C(C)(C)C [Example 236, (3S)-3-({6-fluoro-4-[7-methoxy-6-(2-methylpropane-2-sulfonyl)imidazo[1,2-a]pyridin-3-yl]pyridin-2-yl}amino)butan-1-ol]
- IC50 [1]: < 50 nM
- IC50 [2, 3]: < 1 nM

Compound: COc1cc2ncc(-c3cc(F)nc(NC(C)(C)CO)c3)n2cc1S(=O)(=O)C(C)(C)C [Example 237, 2-({6-fluoro-4-[7-methoxy-6-(2-methylpropane-2-sulfonyl)imidazo[1,2-a]pyridin-3-yl]pyridin-2-yl}amino)-2-methylpropan-1-ol]
- IC50 [1]: 50 to 250 nM
- IC50 [2]: 2.5 to 20 nM

Compound: CCOc1cc2ncc(-c3cc(F)nc(NCCCO)c3)n2cc1C1(F)CCN(C)CC1 [Example 242, 3-({4-[7-ethoxy-6-(4-fluoro-1-methylpiperidin-4-yl)imidazo[1,2-a]pyridin-3-yl]-6-fluoropyridin-2-yl}amino)propan-1-ol]
- IC50 [1]: < 50 nM
- IC50 [2, 3]: < 1 nM

Compound: CCOc1cc2ncc(-c3cc(F)nc(NCCCO)c3)n2cc1S(=O)(=O)C(C)C [Example 243, 3-({4-[7-ethoxy-6-(propane-2-sulfonyl)imidazo[1,2-a]pyridin-3-yl]-6-fluoropyridin-2-yl}amino)propan-1-ol]
- IC50 [1]: < 50 nM
- IC50 [2, 3]: < 1 nM

Compound: COc1cc2ncc(-c3ccnc(NCCCO)c3)n2cc1S(=O)(=O)C(C)(C)C [Example 247, 3-({4-[7-methoxy-6-(2-methylpropane-2-sulfonyl)imidazo[1,2-a]pyridin-3-yl]pyridin-2-yl}amino)propan-1-ol]
- IC50 [1]: < 50 nM
- IC50 [2]: 2.5 to 20 nM

Compound: COc1cc2ncc(-c3cc(F)nc(NCCCO)c3)n2cc1C(=O)N(C)C [Example 248, 3-{2-fluoro-6-[(3-hydroxypropyl)amino]pyridin-4-yl}-7-methoxy-N,N-dimethylimidazo[1,2-a]pyridine-6-carboxamide]
- IC50 [1]: 50 to 250 nM
- IC50 [2]: 2.5 to 20 nM

Compound: COc1cc2ncc(-c3cc(F)nc(NCC(C)(C)O)c3)n2cc1C(=O)N(C)C [Example 249, 3-{2-fluoro-6-[(2-hydroxy-2-methylpropyl)amino]pyridin-4-yl}-7-methoxy-N,N-dimethylimidazo[1,2-a]pyridine-6-carboxamide]
- IC50 [1]: 250 to 1000 nM
- IC50 [2, 3]: > 20 nM

Compound: COc1cc2ncc(-c3cc(F)nc(NCCCO)c3)n2cc1CO [Example 250, 3-({6-fluoro-4-[6-(hydroxymethyl)-7-methoxyimidazo[1,2-a]pyridin-3-yl]pyridin-2-yl}amino)propan-1-ol]
- IC50 [1]: 50 to 250 nM
- IC50 [2]: 2.5 to 20 nM

Compound: CNC(=O)c1cn2c(-c3cc(F)nc(NCCCO)c3)cnc2cc1OC [Example 251, 3-{2-fluoro-6-[(3-hydroxypropyl)amino]pyridin-4-yl}-7-methoxy-N-methylimidazo[1,2-a]pyridine-6-carboxamide]
- IC50 [1]: < 50 nM
- IC50 [2]: 1 to 2.5 nM

Reference: US20250346593A1, “IMIDAZO(1,2-1)PYRIDINE DERIVATIVES AS RIPK2 INHIBITORS” (Interline Therapeutics, Inc., priority 2022, published 2025)
